Details: relaxation calorimetry - Quantum Design PPMS; for molar entropy: 101.33 kPa

O=P([O-])([O-])[O-].[Fe+3] [iron(III) phosphate]
Details	molar entropy [J/K/mol]
1 K, Crystal 2	0.001252
2 K, Crystal 2	0.01157
3 K, Crystal 2	0.0497
4 K, Crystal 2	0.1381
5 K, Crystal 2	0.2911
6 K, Crystal 2	0.5136
7 K, Crystal 2	0.8015
8 K, Crystal 2	1.143
9 K, Crystal 2	1.528
10 K, Crystal 2	1.948
11 K, Crystal 2	2.4
12 K, Crystal 2	2.878
13 K, Crystal 2	3.381
14 K, Crystal 2	3.904
15 K, Crystal 2	4.446
16 K, Crystal 2	5.012
17 K, Crystal 2	5.603
18 K, Crystal 2	6.223
19 K, Crystal 2	6.877
20 K, Crystal 2	7.545
25 K, Crystal 1	11.49
30 K, Crystal 1	14.26
35 K, Crystal 1	16.51
40 K, Crystal 1	18.7
45 K, Crystal 1	20.89
50 K, Crystal 1	23.09
55 K, Crystal 1	25.3
60 K, Crystal 1	27.52
65 K, Crystal 1	29.74
70 K, Crystal 1	31.97
75 K, Crystal 1	34.2
80 K, Crystal 1	36.44
85 K, Crystal 1	38.66
90 K, Crystal 1	40.88
95 K, Crystal 1	43.09
100 K, Crystal 1	45.3
110 K, Crystal 1	49.7
120 K, Crystal 1	54.04
130 K, Crystal 1	58.32
140 K, Crystal 1	62.54
150 K, Crystal 1	66.7
160 K, Crystal 1	70.79
170 K, Crystal 1	74.82
180 K, Crystal 1	78.8
190 K, Crystal 1	82.72
200 K, Crystal 1	86.59
210 K, Crystal 1	90.41
220 K, Crystal 1	94.19
230 K, Crystal 1	97.92
240 K, Crystal 1	101.61
250 K, Crystal 1	105.25
260 K, Crystal 1	108.86
270 K, Crystal 1	112.42
273.15 K, Crystal 1	113.53
280 K, Crystal 1	115.93
290 K, Crystal 1	119.41
298.15 K, Crystal 1	122.21
300 K, Crystal 1	122.84

Details	Triple point temperature [K]
Crystal 2	25
